Assays:
Phakopsora pachyrhizi [1] = experiment: Field evaluation of fungicides for control of soybean asian rust, Rondonópolis, MT, Brazil; type: in vivo
Method: Results of the 2nd step with defined crops (Evaluation of efficiency of fungicides for controlling soybean asian rust caused by Phakopsora pachyrhizi in the State of Mato Grosso, Brazil)
Several fungicides were evaluated in the control of soybean asian rust (Table 1A). The experiment was effected in Rondonópolis, MT, Brazil, harvest 2005/06, in a commercial area with soybean cultivar. The experiment consisted of 13 treatments (Table 1A).
The experimental outlining was random, in blocks, with 13 treatments and 4 repetitions. Each plot consisted of 6 lines of 6 m, spaced 0.45 m.
The culture traits were suited to the good development of the soybean crop, uniformly applied in the whole experiment.
The spraying was effected in stadiums R3 and R5.1, with coast CO2 sprayer provided with a JA-02-type beak, under a pressure of 0.31 MPa (45 psi), using 110 L of broth per ha. At the first application, the plants were presenting the beginning of rust symptoms at their foliar areas.
The rust was evaluated by analysing the percentage of foliar area affected by the disease, according to Godoy et al., in the plants of the three central lines. Evaluationa related to soybean injury and severity were effected in 14 and 21 days after the first application (DDA), by means of visual observation of the leaves of the plot plants.

Phakopsora pachyrhizi [2] = experiment: Greenhouse soybean rust test, plants at V6 stage, evaluated every 5 days; type: in vivo
Text: Recent tests carried out in greenhouses the laboratory of FMC Quimica do Brasil Ltda. in Uberaba, MG, Brazil, show the highly fungicidal effect of said specific imidazole and/or triazole derivatives in combating diseases of plants, particularly against the attack by the fungus Phakopsora pachyrhizi on soybeans, as described hereinafter. […]
Equipment: a manual sprayer commonly used in agriculture with 2-liter capacity.
Dosages: 50 to 500 grams per hectare of the active compound Fluconazole per liter diluted in water.
Evaluations of the Effectiveness of the Product: The evaluations were made every 5 days after application of the product, in a total of 4 evaluations. As an evaluation parameter one utilized the severity of the disease (percentage of foliar area attacked by rust) according to the diagrammatic scale of the EMBRAPA (FIG. 1). […]
Dosages: 50 to 500 grams per hectare of the active compound Itraconazole per liter diluted in water.

[3] = Dose 1000 P.C. mL ha^−1, 14 days after the first application
[4] = Dose 1000 P.C. mL ha^−1, 21 days after the first application

CC(=O)N1CCN(c2ccc(OC[C@H]3CO[C@](Cn4ccnc4)(c4ccc(Cl)cc4Cl)O3)cc2)CC1 (relative stereo) [Ketoconazole, cis-1-acetyl-4-(4-((2-(2,4-dichloro-phenyl)-2-(1H-imidazol-1-ylmethyl)-1,3-dioxolan-4-yl)methoxyl)phenyl)piperazine]
Severity - affected foliar area (%) 14 DAA (Phakopsora pachyrhizi [1]; [3]): 2.0% | Severity - affected foliar area (%) 21 DAA (Phakopsora pachyrhizi [1]; [4]): 7.0% | SEVERITY OF RUST (% IFA) 5 DAT (Phakopsora pachyrhizi [2]; 100 g ac/ha, soybeans): 27 % IFA | SEVERITY OF RUST (% IFA) 10 DAT (Phakopsora pachyrhizi [2]; 100 g ac/ha, soybeans): 20 % IFA | SEVERITY OF RUST (% IFA) 20 DAT (Phakopsora pachyrhizi [2]; 100 g ac/ha, soybeans): 45 % IFA | SEVERITY OF RUST (% IFA) 5 DAT (Phakopsora pachyrhizi [2]; 200 g ac/ha, soybeans): 10 % IFA | SEVERITY OF RUST (% IFA) 10 DAT (Phakopsora pachyrhizi [2]; 200 g ac/ha, soybeans): 8 % IFA | SEVERITY OF RUST (% IFA) 20 DAT (Phakopsora pachyrhizi [2]; 200 g ac/ha, soybeans): 18 % IFA | SEVERITY OF RUST (% IFA) 5 DAT (Phakopsora pachyrhizi [2]; 300 g ac/ha, soybeans): 10 % IFA | SEVERITY OF RUST (% IFA) 10 DAT (Phakopsora pachyrhizi [2]; 300 g ac/ha, soybeans): 6 % IFA | SEVERITY OF RUST (% IFA) 20 DAT (Phakopsora pachyrhizi [2]; 300 g ac/ha, soybeans): 16 % IFA | SEVERITY OF RUST (% IFA) 5 DAT (Phakopsora pachyrhizi [2]; 400 g ac/ha, soybeans): 11 % IFA | SEVERITY OF RUST (% IFA) 10 DAT (Phakopsora pachyrhizi [2]; 400 g ac/ha, soybeans): 7 % IFA | SEVERITY OF RUST (% IFA) 20 DAT (Phakopsora pachyrhizi [2]; 400 g ac/ha, soybeans): 15 % IFA | SEVERITY OF RUST (% IFA) 5 DAT (Phakopsora pachyrhizi [2]; 500 g ac/ha, soybeans): 8 % IFA | SEVERITY OF RUST (% IFA) 10 DAT (Phakopsora pachyrhizi [2]; 500 g ac/ha, soybeans): 4 % IFA | SEVERITY OF RUST (% IFA) 20 DAT (Phakopsora pachyrhizi [2]; 500 g ac/ha, soybeans): 11 % IFA | effectiveness for controlling soybean rust (Phakopsora pachyrhizi [2]; from the dose of 200 grams of active ingredients per hectare): imparts effectiveness for controlling soybean rust

OC(Cn1cncn1)(Cn1cncn1)c1ccc(F)cc1F [Fluconazole, alpha-(2,4-difluorophenyl)-alpha-(1H-1,2,4-trizole-1-ylmethyl)-1H-1,2,4-trizole-1-ethanol]
Severity - affected foliar area (%) 14 DAA (Phakopsora pachyrhizi [1]; Dose 500 P.C. mL ha^−1, 14 days after the first application): 0.6% | Severity - affected foliar area (%) 21 DAA (Phakopsora pachyrhizi [1]; Dose 500 P.C. mL ha^−1, 21 days after the first application): 4.0% | Severity - affected foliar area (%) 14 DAA (Phakopsora pachyrhizi [1]; Dose 750 P.C. mL ha^−1, 14 days after the first application): 0.5% | Severity - affected foliar area (%) 21 DAA (Phakopsora pachyrhizi [1]; Dose 750 P.C. mL ha^−1, 21 days after the first application): 2.0% | Severity - affected foliar area (%) 14 DAA (Phakopsora pachyrhizi [1]; [3]): 0.4% | Severity - affected foliar area (%) 21 DAA (Phakopsora pachyrhizi [1]; [4]): 1.5% | SEVERITY OF RUST (% IFA) 5 DAT (Phakopsora pachyrhizi [2]; Table 2: 50 g ac/ha, soybean): 5 % IFA | SEVERITY OF RUST (% IFA) 10 DAT (Phakopsora pachyrhizi [2]; Table 2: 50 g ac/ha, soybean): 10 % IFA | SEVERITY OF RUST (% IFA) 15 DAT (Phakopsora pachyrhizi [2]; Table 2: 50 g ac/ha, soybean): 12 % IFA | SEVERITY OF RUST (% IFA) 20 DAT (Phakopsora pachyrhizi [2]; Table 2: 50 g ac/ha, soybean): 12 % IFA | SEVERITY OF RUST (% IFA) 5 DAT (Phakopsora pachyrhizi [2]; Table 2: 100 g ac/ha, soybean): 5 % IFA | SEVERITY OF RUST (% IFA) 10 DAT (Phakopsora pachyrhizi [2]; Table 2: 100 g ac/ha, soybean): 7 % IFA | SEVERITY OF RUST (% IFA) 15 DAT (Phakopsora pachyrhizi [2]; Table 2: 100 g ac/ha, soybean): 10 % IFA | SEVERITY OF RUST (% IFA) 20 DAT (Phakopsora pachyrhizi [2]; Table 2: 100 g ac/ha, soybean): 11 % IFA | SEVERITY OF RUST (% IFA) 5 DAT (Phakopsora pachyrhizi [2]; Table 2: 150 g ac/ha, soybean): 4 % IFA | SEVERITY OF RUST (% IFA) 10 DAT (Phakopsora pachyrhizi [2]; Table 2: 150 g ac/ha, soybean): 6 % IFA | SEVERITY OF RUST (% IFA) 15 DAT (Phakopsora pachyrhizi [2]; Table 2: 150 g ac/ha, soybean): 9 % IFA | SEVERITY OF RUST (% IFA) 20 DAT (Phakopsora pachyrhizi [2]; Table 2: 150 g ac/ha, soybean): 10 % IFA | SEVERITY OF RUST (% IFA) 5 DAT (Phakopsora pachyrhizi [2]; Table 2: 250 g ac/ha, soybean): 3 % IFA | SEVERITY OF RUST (% IFA) 10 DAT (Phakopsora pachyrhizi [2]; Table 2: 250 g ac/ha, soybean): 7 % IFA | SEVERITY OF RUST (% IFA) 15 DAT (Phakopsora pachyrhizi [2]; Table 2: 250 g ac/ha, soybean): 11 % IFA | SEVERITY OF RUST (% IFA) 20 DAT (Phakopsora pachyrhizi [2]; Table 2: 250 g ac/ha, soybean): 10 % IFA | SEVERITY OF RUST (% IFA) 5 DAT (Phakopsora pachyrhizi [2]; Table 2: 500 g ac/ha, soybean): 0 % IFA | SEVERITY OF RUST (% IFA) 10 DAT (Phakopsora pachyrhizi [2]; Table 2: 500 g ac/ha, soybean): 0 % IFA | SEVERITY OF RUST (% IFA) 15 DAT (Phakopsora pachyrhizi [2]; Table 2: 500 g ac/ha, soybean): 2 % IFA | SEVERITY OF RUST (% IFA) 20 DAT (Phakopsora pachyrhizi [2]; Table 2: 500 g ac/ha, soybean): 4 % IFA | effective in controlling soybean rust (Phakopsora pachyrhizi [2]; from 50 grams of active ingredient per hectare): effective in controlling soybean rust

From patent publication US20080287299A1, “Use of Imidazole and/or Triazole Derivatives for Combating Plant Pests; as Well as Method for Controlling Diseases/Insects/Mites/Nematodes and Weeds, Particularly Foliar and/or Soil Diseases” (priority 2005, published 2008)
